Several values for one entry are separate records, joined by “and”; a condition that tells them apart may be missing. Identical values can stand only once. Toxic doses and inconclusive results are not listed. Rule as the data show it: active = T/C of 150% or more; inactive = T/C below 125%.
Tested on: L1210 leukemia ip in BDF1 mice, survival T/C
Assay: NCI In Vivo Anticancer Drug Screen. Data for tumor model L1210 Leukemia (intraperitoneal) in B6D2F1 (BDF1) mice
Settings: endpoint: mean survival time, higher = longer survival
How it was run: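 Each compound was tested against a transplantable tumor grown in mice. The endpoint was survival, with treated animals benchmarked against vehicle controls as a simple ratio.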

[1] = dose: 12.5 mg/kg/injection, schedule: Q01DX009 (ip), vehicle: saline with Tween-80
[2] = dose: 25.0 mg/kg/injection, schedule: Q01DX009 (ip), vehicle: saline with Tween-80
[3] = dose: 50.0 mg/kg/injection, schedule: Q01DX009 (ip), vehicle: saline with Tween-80
[4] = dose: 100.0 mg/kg/injection, schedule: Q01DX009 (ip), vehicle: saline with Tween-80
[5] = dose: 200.0 mg/kg/injection, schedule: Q01DX009 (ip), vehicle: saline with Tween-80
[6] = dose: 100.0 mg/kg/injection, schedule: Q01DX001 (ip), vehicle: carboxymethylcellulose (CMC)
[7] = dose: 200.0 mg/kg/injection, schedule: Q01DX001 (ip), vehicle: carboxymethylcellulose (CMC)
[8] = dose: 400.0 mg/kg/injection, schedule: Q01DX001 (ip), vehicle: carboxymethylcellulose (CMC)
[9] = dose: 100.0 mg/kg/injection, schedule: Q04DX003 (ip), vehicle: Klucel (hydroxypropylcellulose) (HPC)
[10] = dose: 200.0 mg/kg/injection, schedule: Q04DX003 (ip), vehicle: Klucel (hydroxypropylcellulose) (HPC)
[11] = dose: 400.0 mg/kg/injection, schedule: Q04DX003 (ip), vehicle: Klucel (hydroxypropylcellulose) (HPC)
[12] = dose: 100.0 mg/kg/injection, schedule: Q01DX009 (ip), vehicle: Klucel (hydroxypropylcellulose) (HPC)
[13] = dose: 200.0 mg/kg/injection, schedule: Q01DX009 (ip), vehicle: Klucel (hydroxypropylcellulose) (HPC)
[14] = dose: 400.0 mg/kg/injection, schedule: Q01DX009 (ip), vehicle: Klucel (hydroxypropylcellulose) (HPC)

Measured: T/C

Cc1cc(NC(=O)Nc2ccc(Cl)cc2Cl)no1
inactive: [1] 95 % of control | [2] 91 % of control | [3] 91 % of control and 92 % of control | [4] 95 % of control | [5] 95 % of control

CC1CN1P(=O)(Oc1cccc2ccccc12)N1CC1C (centres undefined)
inactive: dose: 50.0 mg/kg/injection, schedule: Q01DX001 (ip), vehicle: saline 96 % of control | dose: 100.0 mg/kg/injection, schedule: Q01DX001 (ip), vehicle: saline 100 % of control | dose: 178.0 mg/kg/injection, schedule: Q01DX001 (ip), vehicle: saline 101 % of control and 109 % of control | dose: 200.0 mg/kg/injection, schedule: Q01DX001 (ip), vehicle: saline 113 % of control | dose: 267.0 mg/kg/injection, schedule: Q01DX001 (ip), vehicle: saline 101 % of control and 103 % of control | dose: 400.0 mg/kg/injection, schedule: Q01DX001 (ip), vehicle: saline 101 % of control and 104 % of control | dose: 600.0 mg/kg/injection, schedule: Q01DX001 (ip), vehicle: saline 110 % of control and 116 % of control

O=[N+]([O-])/C=C/c1ccco1
inactive: dose: 18.75 mg/kg/injection, schedule: Q04DX003 (ip), vehicle: saline with Tween-80 101 % of control | dose: 37.5 mg/kg/injection, schedule: Q04DX003 (ip), vehicle: saline with Tween-80 95 % of control | dose: 75.0 mg/kg/injection, schedule: Q04DX003 (ip), vehicle: saline with Tween-80 101 % of control

CCCCOP(=O)(CCCC)OCCCC
inactive: [1] 103 % of control | dose: 12.5 mg/kg/injection, schedule: Q04DX003 (ip), vehicle: saline with Tween-80 86 % of control | [2] 92 % of control | dose: 25.0 mg/kg/injection, schedule: Q04DX003 (ip), vehicle: saline with Tween-80 104 % of control | [3] 92 % of control | dose: 50.0 mg/kg/injection, schedule: Q04DX003 (ip), vehicle: saline with Tween-80 93 % of control and 94 % of control

COc1cccc2cc[nH]c12
inactive: dose: 50.0 mg/kg/injection, schedule: Q01DX001 (ip), vehicle: carboxymethylcellulose (CMC) 105 % of control | [6] 100 % of control | [7] 112 % of control | [8] 100 % of control

CCC[N+](C)(C)CCCOC(=O)C1C2CC3OC(=O)C1C3C2 (centres undefined)
inactive: dose: 12.5 mg/kg/injection, schedule: Q04DX003 (ip), vehicle: saline 106 % of control | dose: 25.0 mg/kg/injection, schedule: Q04DX003 (ip), vehicle: saline 100 % of control | dose: 50.0 mg/kg/injection, schedule: Q04DX003 (ip), vehicle: saline 100 % of control | dose: 100.0 mg/kg/injection, schedule: Q04DX003 (ip), vehicle: saline 97 % of control | dose: 200.0 mg/kg/injection, schedule: Q04DX003 (ip), vehicle: saline 91 % of control

Cc1nc(N)cc(=O)[nH]1
inactive: dose: 100.0 mg/kg/injection, schedule: Q01DX009 (ip), vehicle: water 112 % of control | dose: 100.0 mg/kg/injection, schedule: Q04DX003 (ip), vehicle: water 97 % of control | dose: 200.0 mg/kg/injection, schedule: Q01DX009 (ip), vehicle: water 104 % of control | dose: 200.0 mg/kg/injection, schedule: Q04DX003 (ip), vehicle: water 97 % of control | dose: 400.0 mg/kg/injection, schedule: Q04DX003 (ip), vehicle: water 97 % of control

CCCCCCCCCCCCCCCc1ccc(C(=O)C[n+]2ccccc2)cc1
inactive: dose: 16.5 mg/kg/injection, schedule: Q01DX009 (ip), vehicle: saline with Tween-80 114 % of control | [2] 120 % of control

CSc1nc(Cl)cc(Sc2nc(N)nc3nc[nH]c23)n1
inactive: dose: 100.0 mg/kg/injection, schedule: Q01DX Z (ip), vehicle: methylcellulose (MC) 110 % of control

CC(=O)N(c1ccccc1OS(C)(=O)=O)S(C)(=O)=O
inactive: [9] 109 % of control | [10] 100 % of control | [11] 104 % of control

ICc1ccc(CI)cc1
inactive: dose: 25.0 mg/kg/injection, schedule: Q01DX009 (ip), vehicle: saline 100 % of control | dose: 100.0 mg/kg/injection, schedule: Q01DX001 (ip), vehicle: other 106 % of control | dose: 100.0 mg/kg/injection, schedule: Q04DX003 (ip), vehicle: acetone 106 % of control | dose: 200.0 mg/kg/injection, schedule: Q01DX001 (ip), vehicle: other 88 % of control | dose: 400.0 mg/kg/injection, schedule: Q01DX001 (ip), vehicle: other 88 % of control

SC1c2cc(Cl)ccc2-c2ccc(Cl)cc21
inactive: [6] 92 % of control | [7] 92 % of control | [8] 92 % of control

O=C1OC(=O)C2C3CCCCC3=C3CCCCC3C12 (centres undefined)
inactive: dose: 100.0 mg/kg/injection, schedule: Q04DX002 (ip), vehicle: Klucel (hydroxypropylcellulose) (HPC) 96 % of control | [9] 101 % of control | dose: 200.0 mg/kg/injection, schedule: Q04DX002 (ip), vehicle: Klucel (hydroxypropylcellulose) (HPC) 101 % of control | [10] 105 % of control | dose: 400.0 mg/kg/injection, schedule: Q04DX002 (ip), vehicle: Klucel (hydroxypropylcellulose) (HPC) 93 % of control | [11] 103 % of control

CN(C)S(=O)(=O)c1ccc(NC(=O)OC2CCCC2)cc1
inactive: [6] 93 % of control | [7] 98 % of control | [8] 98 % of control

CCCCCCCCCC(O)CCCCC (centres undefined)
inactive: [4] 103 % of control | [9] 98 % of control | [5] 107 % of control | [10] 97 % of control | [11] 101 % of control

O=[N+]([O-])c1cncc([N+](=O)[O-])c1NCc1ccccc1
inactive: dose: 100.0 mg/kg/injection, schedule: Q04DX003 (ip), vehicle: saline with Tween-80 103 % of control | dose: 200.0 mg/kg/injection, schedule: Q04DX003 (ip), vehicle: saline with Tween-80 93 % of control | dose: 400.0 mg/kg/injection, schedule: Q04DX003 (ip), vehicle: saline with Tween-80 104 % of control

CN(C)N=Nc1c(Cl)cc(Cl)cc1Cl
inactive: [3] 107 % of control | [4] 100 % of control | [5] 107 % of control

COCC(=O)CC(C)=O
inactive: [12] 98 % of control | [9] 100 % of control | [13] 106 % of control | [10] 95 % of control | [14] 101 % of control | [11] 101 % of control

CC(C)CS.[Pb]
inactive: dose: 100.0 mg/kg/injection, schedule: Q04DX002 (ip), vehicle: gum acacia 93 % of control | dose: 200.0 mg/kg/injection, schedule: Q04DX002 (ip), vehicle: gum acacia 93 % of control | dose: 400.0 mg/kg/injection, schedule: Q04DX002 (ip), vehicle: gum acacia 89 % of control

CCc1ccccc1NC(=S)NC1CCCCC1
inactive: [12] 92 % of control | [13] 101 % of control

O=c1[nH]c2ccccc2c2ccc(Br)cc12
inactive: [6] 104 % of control | [7] 97 % of control | [8] 90 % of control

CC(=O)c1cccc(NC(=O)Oc2ccc(C(=O)OCc3ccccc3)cc2)c1
inactive: [12] 98 % of control | [13] 95 % of control | [14] 106 % of control

O=C(CCl)Nc1ccc(CCN2C(=O)CC(c3ccccc3)C2=O)cc1 (centres undefined)
inactive: dose: 100.0 mg/kg/injection, schedule: Q04DX002 (ip), vehicle: saline with Tween-80 93 % of control | dose: 200.0 mg/kg/injection, schedule: Q04DX002 (ip), vehicle: saline with Tween-80 97 % of control | dose: 400.0 mg/kg/injection, schedule: Q04DX002 (ip), vehicle: saline with Tween-80 89 % of control

From PubChem BioAssay AID248 (DTP/NCI, 2004)
